In ChEMBL document CHEMBL1201862, “PubChem BioAssay data set” (2004):
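Following 48 hours of exposure in 96-well plates, responses at five concentrations were used to interpolate endpoints linearly. Here, GI50 denotes the concentration required for 50% inhibition of growth.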 Active and inactive are the calls of the source. Rule as the data show it: active = GI50 up to about 1.1 µM and inactive = higher.

Assays:
Assay in all cases: inhibition of tumour cell growth, NCI panel, 48 h
[1] = test system: CAKI-1
[2] = test system: HOP-62
[3] = test system: OVCAR-3
[4] = test system: UACC-257
[5] = test system: SNB-19
[6] = test system: UACC-62
[7] = test system: HCC 2998
[8] = test system: NCI-H460
[9] = test system: SK-MEL-5
[10] = test system: SK-MEL-28
[11] = test system: K562
[12] = test system: U-251
[13] = test system: SK-MEL-2
[14] = test system: SNB-75
[15] = test system: A549
[16] = test system: SF-295
[17] = test system: HT-29
[18] = test system: Malme-3M
[19] = test system: SN12C
[20] = test system: EKVX
[21] = test system: SF-268
[22] = test system: LXFL 529
[23] = test system: NCI-H226
[24] = test system: TK-10
[25] = test system: UO-31
[26] = test system: HCT-116
[27] = test system: OVCAR-4
[28] = test system: MOLT-4
[29] = test system: HOP-92
[30] = test system: M19-MEL
[31] = test system: OVCAR-8
[32] = test system: NCI-H23
[33] = test system: ACHN
[34] = test system: SF-539
[35] = test system: XF498
[36] = test system: IGROV-1
[37] = test system: HCT-15
[38] = test system: DMS-114
[39] = test system: CCRF-CEM
[40] = test system: COLO 205
[41] = test system: KM-20L2
[42] = test system: SK-OV-3
[43] = test system: A498
[44] = test system: LOX IMVI
[45] = test system: 786-0
[46] = test system: SR
[47] = test system: RXF 393
[48] = test system: DMS-273
[49] = test system: HL-60
[50] = test system: OVCAR-5
[51] = test system: NCI-H522
[52] = test system: HOP-18
[53] = test system: KM12
[54] = test system: M14
[55] = test system: DLD-1
[56] = test system: SW-620
[57] = test system: RPMI-8226

Measured: GI50

CC(C)(C)c1ccc(C(O)c2ccc(C(C)(C)C)cc2)cc1
inactive: [1] 15.1 µM | [2] 16.3 µM | [3] 14.5 µM | [4] 18.8 µM | [5] 17.9 µM | [6] 15.8 µM | [7] 21 µM | [8] 12.8 µM | [9] 16.6 µM | [10] 16.8 µM | [11] 14.7 µM | [12] 13.1 µM | [13] 15.2 µM | [14] 19.2 µM | [15] 14.2 µM | [16] 14 µM | [17] 10.4 µM | [18] 15.8 µM | [19] 13.1 µM | [20] 17.7 µM | [21] 20 µM | [22] 15.5 µM | [23] 4.72 µM | [24] 21.1 µM | [25] 16 µM | [26] 12.1 µM | [27] 15.2 µM | [28] 17.6 µM | [29] 12.6 µM | [30] 13.7 µM | [31] 14.8 µM | [32] 12.1 µM | [33] 16.6 µM | [34] 17.3 µM | [35] 15.1 µM | [36] 16.1 µM | [38] 12.7 µM | [39] 16.9 µM | [40] 13.6 µM | [41] 17.7 µM | [42] 14.7 µM | [43] 18.7 µM | [44] 14.7 µM | [45] 15.5 µM | [46] 23.9 µM | [47] 17.1 µM | [48] 12.6 µM | [49] 17.1 µM | [50] 16.6 µM | [51] 10.2 µM | [52] 17.5 µM | [53] 15.6 µM | [54] 15 µM | [55] 14.6 µM | [56] 14.6 µM
12.1 µM: [37]

C[C@H](CCC1SC1(C)C)C1CCC2(C)C3=C(CC[C@]12C)[C@@]1(C)CC[C@H](O)C(C)(C)C1CC3 (stereo partly specified)
inactive: [1] > 100 µM | [2] > 100 µM | [3] > 100 µM | [4] > 100 µM | [5] > 100 µM | [6] > 100 µM | [7] > 100 µM | [8] > 100 µM | [9] > 100 µM | [10] > 100 µM | [11] > 100 µM | [12] > 10 µM | [13] > 100 µM | [14] 75.2 µM | [15] > 100 µM | [16] > 100 µM | [17] > 100 µM | [18] > 100 µM | [19] > 100 µM | [20] > 100 µM | [21] > 100 µM | [22] > 100 µM | [23] > 100 µM | [24] > 100 µM | [25] > 100 µM | [26] > 100 µM | [27] > 100 µM | [28] > 100 µM | [29] > 100 µM | [31] > 100 µM | [32] > 100 µM | [33] 61 µM | [35] > 100 µM | [36] > 100 µM | [38] > 100 µM | [39] > 100 µM | [40] > 100 µM | [41] > 100 µM | [42] > 100 µM | [43] > 100 µM | [44] > 100 µM | [45] > 100 µM | [46] > 100 µM | [47] > 100 µM | [48] > 100 µM | [49] > 100 µM | [50] > 100 µM | [51] > 100 µM | [52] > 100 µM | [53] > 100 µM | [54] > 100 µM | [55] > 100 µM | [57] > 100 µM | [56] > 100 µM
> 100 µM: [37]
